Bridge positions count the residues as written; N and C are the ends. Square brackets hold non-standard residues; d marks the D form. Peptide text beside a SMILES is read from it. * marks the point of attachment. X1 = O=C(CN1CCN(CCO)CC1)*
Assays:
[1] = test system: MCP-1; test: In vitro chemotaxis (trans-well migration) v MCP-1; type: cell-based, human
Procedure, shortened: (§1)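 Trans-well migration toward IL-8 or MCP-1 placed below, with agent added to THP-1 cells (10^4-10^6) in the top well and incubation at 37° C (e.g. 4 hours). MTT absorbance at 595 nm, interpolated on a cell standard curve, gives migrated cell numbers; TGFβ-type negative control and cytotoxicity check included.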

[2] = test system: IL-8; test: In vitro chemotaxis, inhibition v IL-8; type: cell-based, human; design: concentration or dose not given beside the values
Procedure, shortened: as §1

[3] = Half-life in rat plasma in vitro; type: in vitro ADME; settings: for half-life: read-out: T ½ rat plasma in vitro (converted)
[4] = Half-life in rat in vivo; settings: read-out: T ½ rat in vivo

Row | EC50 [1] [µM] | half-life [3] [h] | half-life [4] [h] | T ½ rat plasma in vitro [3] [h] | Compound | v IL-8 inhibition (%) [2] [%]
1 | 0.02 | 11.1 | 0.55 | – | CC(C)[C@H](NC(=O)[C@H](Cc1c[nH]c2ccccc12)NC(=O)OC(C)(C)C)C(=O)NC1CCC(=O)NC1=O (stereo partly drawn) [Example 164, BOC-Trp-Val-α-aminoglutaramide] | 104.4
2 | 0.02 | 6.1 | – | – | CC(C)(C)OC(=O)N[C@@H](Cc1c[nH]c2ccccc12)C(=O)NCC(=O)NC1CCC(=O)NC1=O (stereo partly drawn) [Example 163, BOC-Trp-Gly-α-aminoglutaramide] | 105.7
3 | – | 9.1 | – | – | CC(C)OC(=O)N[C@@H](Cc1c[nH]c2ccccc12)C(=O)NCCC(=O)NC1CCC(=O)NC1=O (stereo partly drawn) [Example 179, N-(isopropoxycarbonyl)-Trp-βAla-α-aminoglutarimide] | –
4 | 0.066 | 3.1 | – | – | CC(C)(NC(=O)[C@@H](N)Cc1c[nH]c2ccccc12)C(=O)NC1CCC(=O)NC1=O (stereo partly drawn) [Example 188, Trp-Aib-aminoglutarimide] | –
5 | 0.005 | 4 | – | – | CC(C)(C)OC(=O)N[C@@H](Cc1c[nH]c2ccccc12)C(=O)NCCC(=O)NC1CCC(=O)NC1=O (stereo partly drawn) [Example 165, BOC-Trp-βA1a-α-aminoglutaramide] | 111.5
6 | 0.01 | 1.3 | – | – | CC(C)[C@@H](CC(=O)NC1CCC(=O)NC1=O)NC(=O)[C@H](Cc1c[nH]c2ccccc12)NC(=O)OC(C)(C)C (stereo partly drawn) [Example 184, BOC-Trp-βhVal-α-aminoglutarimide] | –
7 | 0.602 | – | – | 8.5 | BOC-Tcc-βAla-α-aminoglutaramide [Example 171] | 84.6
8 | 0.006 | 0.9 | – | – | N[C@@H](Cc1c[nH]c2ccccc12)C(=O)NCCC(=O)NC1CCC(=O)NC1=O (stereo partly drawn) [Example 182, Trp-βAla-α-aminoglutaramide] | –
9 | 0.012 | > 28 | 0.317 | – | CC[C@H](C)[C@@H]1NC(=O)[C@H](Cc2c[nH]c3ccccc23)NC(=O)[C@H](CCCCN)NC(=O)[C@@H](N)CSSC[C@@H](C(N)=O)NC(=O)[C@H](CCC(N)=O)NC1=O [Example 1, c(Cys-Lys-Trp-Ile-Gln-Cys)-NH2] (H-CKWIQC-NH2; disulfide 1-6) | 86.7
10 | 0.02 | – | 0.633 | – | CC[C@@H](C)[C@H]1NC(=O)[C@@H](CCC(N)=O)NC(=O)[C@H](NC(=O)CN2CCN(CCO)CC2)CSSC[C@H](C(N)=O)NC(=O)[C@@H](CC(C)C)NC(=O)[C@@H](CC(=O)O)NC(=O)[C@H]2CCCN2C(=O)[C@@H](CCCCN)NC(=O)[C@@H](CCC(N)=O)NC(=O)[C@@H](CCCCN)NC(=O)[C@@H](Cc2c[nH]c3ccccc23)NC1=O [Example 152, HEPA-c(D-Cys-D-Gln-D-Ile-D-Trp-D-Lys-D-Gln-D-Lys-D-Pro-D-Asp-D-Leu-D-Cys)-NH2] (X1-[dC][dQ][dI][dW][dK][dQ][dK][dP][dD][dL][dC]-NH2; disulfide 1-11) | 103.5
11 | 0.02 | > 24 | – | – | CC[C@@H](C)[C@H]1NC(=O)[C@@H](CCC(N)=O)NC(=O)[C@H](N)CSSC[C@H](C(N)=O)NC(=O)[C@@H](CCCCN)NC(=O)[C@@H](Cc2c[nH]c3ccccc23)NC1=O [Example 183, c(D-Cys-D-Gln-D-Ile-D-Trp-D-Lys-D-Cys)-NH2] (H-[dC][dQ][dI][dW][dK][dC]-NH2; disulfide 1-6) | –
12 | 0.007 | – | < 0.0833 | – | CC[C@H](C)[C@@H]1NC(=O)[C@H](Cc2c[nH]c3ccccc23)NC(=O)[C@H](CCCCN)NC(=O)[C@H](CCC(N)=O)NC(=O)[C@H](CCCCN)NC(=O)[C@@H]2CCCN2C(=O)[C@H](CC(=O)O)NC(=O)[C@@H](NC(=O)[C@H](CC(C)C)NC(C)=O)CSSC[C@@H](C(N)=O)NC(=O)[C@H](CCC(N)=O)NC1=O [Example 19, Ac-Leu-c(Cys-Asp-Pro-Lys-Gln-Lys-Trp-Ile-Gln-Cys)-NH2] (Ac-LCDPKQKWIQC-NH2; disulfide 2-11) | 100.5
13 | 0.02 | > 15 | 0.1 | – | CC[C@H](C)[C@@H]1NC(=O)[C@H](Cc2c[nH]c3ccccc23)NC(=O)[C@H](CCCCN)NC(=O)[C@H](CCC(N)=O)NC(=O)[C@H](CCCCN)NC(=O)[C@@H]2CCCN2C(=O)[C@H](CC(=O)O)NC(=O)[C@H](CC(C)C)NC(=O)[C@@H](N)CSSC[C@@H](C(N)=O)NC(=O)[C@H](CCC(N)=O)NC1=O [Example 33, c(Cys-Leu-Asp-Pro-Lys-Gln-Lys-Trp-Ile-Gln-Cys)-NH2] (H-CLDPKQKWIQC-NH2; disulfide 1-11) | 90.0
